Reference: patent US9012502B2, “Cancer heat therapy-enhancing agent” (SBI Pharmaceuticals Co., Ltd., priority 2010, dated 2015)

Tests used:
[1] = test system: colon cancer-derived cell line Caco-2; test: Hyperthermia sensitivity test using flow cytometry; assay type: cell-based; details: for fraction of dead cells (%), increase compared with 5-ALA-free cells: 42° C.
Description: (§1) To investigate what kind of effect the addition of 5-ALA could exert on hyperthermia sensitivity of cancer cells, a hyperthermia sensitivity test was performed using a flow cytometry technique as follows.
(§2) First, a human fibrosarcoma cell line HT-1080 and a colon cancer-derived cell line Caco-2 were prepared as cancer cell lines, and a human fibroblast line WI-38 and a murine fibroblast line NIH3T3 were prepared as normal cell lines. Also, prepared was a human embryonic kidney cell line HEK293 transformed so as to overgrow like cancer cells. These cells were cultured at 37° C. for 24 hours in 10% FBS-containing DME medium, and split into 8 groups. Next, the medium was replaced by an FBS-free DME medium. Then, 5-aminolevulinic acid (5-ALA) was added to each group at a final concentration of 0.5 mM, 1.0 mM, or 2.0 mM, and cultured at 37° C. for 2 hours. After that, 10% FBS was added, and the resulting cell groups were incubated […] for 24 hours. In addition, 5-ALA-free cell groups were likewise incubated at 37 or 42° C. for 24 hours. All the above culture processes were conducted in the dark, so that an ultraviolet light, visible light, infrared light, or radiation, etc., was never used for irradiation.
(§3) With regard to the fraction of dead cells, a total number of cells having apoptosis and necrosis was counted, and a ratio of the total number to the number of all cells was calculated. […] Of note is little enhancement of the cell death-inducing effect in normal cells.

[2] = test system: human embryonic kidney cell line HEK293 transformed so as to overgrow like cancer cells; test: Hyperthermia sensitivity test using flow cytometry; assay type: cell-based; details: for fraction of dead cells (%), increase compared with 5-ALA-free cells: 42° C.
Description: as §1, §2, §3

[3] = test system: human fibroblast line WI-38; test: Hyperthermia sensitivity test using flow cytometry; assay type: cell-based; details: normal cells WI-38, 42° C.
Description: as §1, §2, §3

[4] = test system: human fibrosarcoma cell line HT-1080; test: Hyperthermia sensitivity test using flow cytometry; assay type: cell-based; details: for fraction of dead cells (%), increase compared with 5-ALA-free cells: 42° C.
Description: as §1, §2, §3

[5] = test system: murine fibroblast line NIH3T3; test: Hyperthermia sensitivity test using flow cytometry; assay type: cell-based; details: normal cells NIH3T3, 42° C.
Description: as §1, §2, §3

[6] = test system: colon cancer-derived cell line Caco-2; test: Hyperthermia sensitivity test using trypan blue reagent; assay type: cell-based; details: for fraction of dead cells (%), increase compared with 5-ALA-free cells: 42° C.
Description: (§4) A colon cancer-derived cell line Caco-2, a human hepatoma-derived cell line HepG2, a human gastric cancer-derived cell line KatoIII, and a human cervical cancer-derived cell line HeLa were used as cancer cell lines. A human embryonic kidney cell line HEK293 was used as cells transformed so as to overgrow like cancer cells. A human normal diploid fibroblast line WI-38, a murine fibroblast-like cell line NIH3T3, and a human embryonic lung-derived normal fibroblast MRCS were used as normal cells. Each of these cells was cultured at 37 or 42° C. for 24 hours in a DME medium containing 10% FBS and 5-ALA at a concentration of 0, 0.5, 1, or 2 mM, and treated with trypsin for cell harvest. Then, equal volumes of the harvested cell-containing solution and a trypan blue reagent were mixed, and the number of the cells was counted with a hemocytometer to calculate the fraction of dead cells (cells stained with trypan blue) (%; percent cell death).

[7] = test system: human cervical cancer-derived cell line HeLa; test: as above; assay type: cell-based
Description: as §4

[8] = test system: human embryonic kidney cell line HEK293; test: as above; assay type: cell-based; details: for fraction of dead cells (%), increase compared with 5-ALA-free cells: 42° C.
Description: as §4

[9] = test system: human embryonic lung-derived normal fibroblast MRCS; test: as above; assay type: cell-based; details: 42° C.
Description: as §4

[10] = test system: human gastric cancer-derived cell line KatoIII; test: as above; assay type: cell-based
Description: as §4

[11] = test system: human hepatoma-derived cell line HepG2; test: as above; assay type: cell-based; details: for fraction of dead cells (%), increase compared with 5-ALA-free cells: 42° C.
Description: as §4

[12] = test system: human normal diploid fibroblast line WI-38; test: as above; assay type: cell-based; details: normal cells WI-38, 42° C.
Description: as §4

[13] = test system: murine fibroblast-like cell line NIH3T3; test: as above; assay type: cell-based; details: normal cells NIH3T3, 42° C.
Description: as §4

[14] = test system: transformed human embryonic kidney cell line HEK293; test: Measuring intracellular PpIX concentration by HPLC; assay type: cell-based; details: for intracellular PpIX concentration, increase compared with 5-ALA-free cells: 42° C. for 24 hours
Description: (§5) These two types of cells were cultured at 37 or 42° C. for 24 hours in a DME medium containing 10% FBS and 5-ALA at a concentration of 0, 0.5, 1, or 2 mM. Next, the cells were harvested using trypsin treatment. Then, the number of cells contained in a measurement sample was adjusted using a hemocytometer at 1×10^4. After that, the cells were lysed with NaOH, and treated with a DMF solution (i.e., a mixture of N,N-dimethylformamide:2-propanol=100:1). The resulting cell lysate was centrifuged at 13,000 rpm and 4° C. for 10 minutes to collect a supernatant. Subsequently, the supernatant was reacted at room temperature for 24 hours. Finally, the resulting supernatant was used as a measurement sample, and was subjected to a PpIX concentration measurement using HPLC.

normal cell line WI-38 = test: Measuring intracellular PpIX concentration by HPLC; assay type: cell-based, human; details: WI-38, regardless of the 5-ALA concentration added, 37 or 42° C.
Description: as §5

[15] = 37° C., each concentration of 5-ALA

NCC(=O)CCC(=O)O [5-ALA, 5-aminolevulinic acid]
fraction of dead cells (%), increase compared with 5-ALA-free cells ([1]; Caco-2, 0.5 mM 5-ALA): about 2.1 times
fraction of dead cells (%), increase compared with 5-ALA-free cells ([1]; Caco-2, 1.0 mM 5-ALA): about 2.0 times
fraction of dead cells (%), increase compared with 5-ALA-free cells ([1]; Caco-2, 2.0 mM 5-ALA): about 1.9 times
fraction of dead cells (in words) ([1]; Caco-2, 37° C.): somewhat increased
fraction of dead cells (in words) ([1]; Caco-2, 42° C.): increase markedly
fraction of dead cells (%), increase compared with 5-ALA-free cells ([2]; HEK293, 0.5 mM 5-ALA): about 3.2 times
fraction of dead cells (%), increase compared with 5-ALA-free cells ([2]; HEK293, 1.0 mM 5-ALA): about 4.8 times
fraction of dead cells (%), increase compared with 5-ALA-free cells ([2]; HEK293, 2.0 mM 5-ALA): about 6.0 times
fraction of dead cells (in words) ([2]; HEK293, 37° C.): somewhat increased
fraction of dead cells (in words) ([2]; HEK293, 42° C.): increase markedly
5-ALA concentration-dependent cell death (in words) [3]: not enhanced
fraction of dead cells (%), increase compared with 5-ALA-free cells ([4]; HT-1080, 0.5 mM 5-ALA): about 1.7 times
fraction of dead cells (%), increase compared with 5-ALA-free cells ([4]; HT-1080, 1.0 mM 5-ALA): about 1.5 times
fraction of dead cells (%), increase compared with 5-ALA-free cells ([4]; HT-1080, 2.0 mM 5-ALA): about 2.3 times
fraction of dead cells (in words) ([4]; HT-1080, 37° C.): somewhat increased
fraction of dead cells (in words) ([4]; HT-1080, 42° C.): increase markedly
5-ALA concentration-dependent cell death (in words) [5]: not enhanced
fraction of dead cells (%), increase compared with 5-ALA-free cells ([6]; Caco-2, 0.5 mM 5-ALA): about 1.2 times
fraction of dead cells (%), increase compared with 5-ALA-free cells ([6]; Caco-2, 1.0 mM 5-ALA): about 1.7 times
fraction of dead cells (%), increase compared with 5-ALA-free cells ([6]; Caco-2, 2.0 mM 5-ALA): about 1.6 times
fraction of dead cells (in words) ([6]; Caco-2, 37° C., each concentration of 5-ALA): did not increase
fraction of dead cells (in words) ([6]; Caco-2, 42° C.): markedly increased depending on the 5-ALA concentration
fraction of dead cells (%), increase compared with 5-ALA-free cells ([7]; 0.5 mM 5-ALA, 42° C.): about 1.4 times
fraction of dead cells (%), increase compared with 5-ALA-free cells ([7]; 1.0 mM 5-ALA, 42° C.): about 1.5 times
fraction of dead cells (%), increase compared with 5-ALA-free cells ([7]; 2.0 mM 5-ALA, 42° C.): about 1.6 times
fraction of dead cells (in words) [7, 15]: did not increase
fraction of dead cells (in words) ([7]; 42° C.): markedly increased depending on the 5-ALA concentration
fraction of dead cells (%), increase compared with 5-ALA-free cells ([8]; HEK293, 0.5 mM 5-ALA): about 1.6 times
fraction of dead cells (%), increase compared with 5-ALA-free cells ([8]; HEK293, 1.0 mM 5-ALA): about 2.0 times
fraction of dead cells (%), increase compared with 5-ALA-free cells ([8]; HEK293, 2.0 mM 5-ALA): about 3.5 times
fraction of dead cells (in words) ([8]; HEK293, 37° C., each concentration of 5-ALA): did not increase
fraction of dead cells (in words) ([8]; HEK293, 42° C.): markedly increased depending on the 5-ALA concentration
increase in the fraction of dead cells depending on the 5-ALA concentration (in words) [9]: no increase
fraction of dead cells (%), increase compared with 5-ALA-free cells ([10]; 0.5 mM 5-ALA, 42° C.): about 1.8 times
fraction of dead cells (%), increase compared with 5-ALA-free cells ([10]; 1.0 mM 5-ALA, 42° C.): about 1.8 times
fraction of dead cells (%), increase compared with 5-ALA-free cells ([10]; 2.0 mM 5-ALA, 42° C.): about 1.8 times
fraction of dead cells (in words) [10, 15]: did not increase
fraction of dead cells (in words) ([10]; 42° C.): markedly increased depending on the 5-ALA concentration
fraction of dead cells (%), increase compared with 5-ALA-free cells ([11]; HepG2, 0.5 mM 5-ALA): about 1.1 times
fraction of dead cells (%), increase compared with 5-ALA-free cells ([11]; HepG2, 1.0 mM 5-ALA): about 1.35 times
fraction of dead cells (%), increase compared with 5-ALA-free cells ([11]; HepG2, 2.0 mM 5-ALA): about 1.5 times
fraction of dead cells (in words) ([11]; HepG2, 37° C., each concentration of 5-ALA): did not increase
fraction of dead cells (in words) ([11]; HepG2, 42° C.): markedly increased depending on the 5-ALA concentration
increase in the fraction of dead cells depending on the 5-ALA concentration (in words) [12]: no increase
increase in the fraction of dead cells depending on the 5-ALA concentration (in words) [13]: no increase
intracellular PpIX concentration, increase compared with 5-ALA-free cells ([14]; HEK293, 0.5 mM 5-ALA): about 2.75 times
intracellular PpIX concentration, increase compared with 5-ALA-free cells ([14]; HEK293, 1.0 mM 5-ALA): about 6.3 times
intracellular PpIX concentration, increase compared with 5-ALA-free cells ([14]; HEK293, 2.0 mM 5-ALA): about 5.9 times
PpIX concentration in the HEK293 cell line (in words) ([14]; culture conditions at 42° C.): increased depending on the 5-ALA concentration
intracellular PpIX concentration (in words) (normal cell line WI-38): detection limit or less
